The text below walks through data of US10081646B2, “Heterobicyclic sphingosine 1-phosphate analogs” (BIOGEN MA INC., priority 2008, dated 2018).

Some results are limits rather than exact numbers.

For one test, the target named is T1, human S1P3 receptor (Homo sapiens, UniProt Q99500).
T1 construct: host or cells: recombinant CHEM cells
T1 sequence (Q99500 whole entry): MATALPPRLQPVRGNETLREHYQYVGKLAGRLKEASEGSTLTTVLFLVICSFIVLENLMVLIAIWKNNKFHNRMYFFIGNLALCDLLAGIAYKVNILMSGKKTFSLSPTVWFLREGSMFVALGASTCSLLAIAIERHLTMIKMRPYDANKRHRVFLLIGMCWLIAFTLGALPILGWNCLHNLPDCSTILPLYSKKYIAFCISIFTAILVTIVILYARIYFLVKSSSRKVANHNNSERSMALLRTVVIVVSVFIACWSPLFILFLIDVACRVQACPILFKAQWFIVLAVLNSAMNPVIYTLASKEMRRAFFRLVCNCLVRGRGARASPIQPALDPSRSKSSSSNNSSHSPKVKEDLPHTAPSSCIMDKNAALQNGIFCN
Description: Calcium mobilization assay, recombinant CHEM cells expressing human S1P3. Format: cell-based. Conditions: FLIPR. How it is done:
Compounds that were not specific for the S1P1 receptor, can have activity for other S1P receptor subtypes, e.g., S1P2, S1P3, S1P4, or S1P5, and can cause undesirable side effects. Accordingly, compounds were tested to identify those that were specific for S1P1 activity and had little or no activity, or are antagonists of, S1P3 activity. Accordingly, the test compounds were tested in a calcium mobilization assay to determine agonist activity at either the human S1P1 or human S1P3 receptor, and antagonist activity only at the human S1P3 receptor. The procedure was essentially as described (with modifications described below) in Davis et al. (2005) Journal of Biological Chemistry, vol. 280, pp. 9833-9841, which is incorporated by reference in its entirety. Calcium mobilization assays were performed in recombinant CHEM cells expressing human S1P1 or S1P3 purchased from Millipore (Billerica, Mass.). To detect free intracellular calcium, S1P1 or S1P3 cells were loaded with FLIPR Calcium 4 dye from Molecular Devices (Sunnyvale, Calif.). Cells were imagined for calcium mobilization using a FLIPR^TETRA equipped with a 96-well dispense head.
In general terms: Calcium flux is commonly read through the fluorescence of an indicator in the cells.
As to `CCCCCCCCCCCCC/C=C/[C@@H](O)[C@@H](N)COP(=O)(O)O` [Example S1P, Sphingosine 1-phosphate], the S1P3 agonist activity entry is listed as “full S1P3 agonist”.

A further test has as its system circulating lymphocytes. Put plainly: Lymphopenia assay: measurement of circulating lymphocytes after oral gavage. Format: in vivo, Mice (C57bl/6 male). Conditions: Mus musculus, Lymphocyte, po, mice, oral gavage 0.5 and 5 mg/kg in 30% HPCD, blood 5 and 24 hours after administration; read-out: Lymphopenia (ED50 mg/kg). As for the experimental part: Measurement of circulating lymphocytes: Compounds were dissolved in 30% HPCD. Mice (C57bl/6 male, 6-10 week-old) were administered 0.5 and 5 mg/kg of a compound via oral gavage. 30% HPCD was included as a negative control.
Blood was collected from the retro-orbital sinus 5 and 24 hours after drug administration under short isoflurane anesthesia. Whole blood samples were subjected to hematology analysis. Peripheral lymphocyte counts were determined using an automated analyzer (HEMAVET™ 3700). Three mice were used to assess the lymphocyte depletion activity of each compound screened.
Turning to `CC(C)(C)[C@H]1CC[C@H](Oc2cc3c(cc2C(F)(F)F)C[C@@H]([C@@](C)(N)CO)CC3)CC1` [Example 71A, (R)-2-amino-2-((S)-6-(trans-4-tert-butylcyclohexyloxy)-7-(trifluoromethyl)-1,2,3,4-tetrahydronaphthalen-2-yl)propan-1-ol], the ED50 is over 5 mg/kg. On to `CC(N)(CO)c1ccc2nc(O[C@H]3CC[C@H](C(C)(C)C)CC3)ccc2c1` (relative stereo) [Example 78, 2-amino-2-(2-(trans-4-tert-butylcyclohexyloxy)quinolin-6-yl)propan-1-ol], for which the ED50 was over 5 mg/kg.

As for `CCCCCCCOc1ccc2nc([C@@](C)(N)CO)ncc2c1` [Example 50, (R)-2-Amino-2-(6-heptyloxyquinazolin-2-yl)propan-1-ol], the ED50 is 0.5 to 5 mg/kg. As to `CC(C)(C)[C@H]1CC[C@H](Oc2ccc3c(c2C(F)(F)F)CC[C@H]([C@@](C)(N)CO)C3)CC1` [Example 71, (R)-2-amino-2-((S)-6-(trans-4-tert-butylcyclohexyloxy)-5-(trifluoromethyl)-1,2,3,4-tetrahydronaphthalen-2-yl)propan-1-ol], the ED50 is under 0.5 mg/kg. With `CC(C)(C)[C@H]1CC[C@H](Oc2ccc3cc([C@@](C)(N)CO)ccc3n2)CC1` (single isomer, unassigned) [Example 79], the ED50 was over 5 mg/kg. Take `CC(C)(C)[C@H]1CC[C@H](Oc2ccc3nc([C@@](C)(N)CO)ncc3c2C(F)(F)F)CC1` [Example 61, (R)-2-Amino-2-(6-(trans-4-tert-butylcyclohexyloxy)-5-(trifluoromethyl)quinazolin-2-yl)propan-1-ol]: the ED50 lay within 0.5 to 5 mg/kg. Same read-out and setting: then `CCCCCCCCc1ccc2nc(C(C)(N)CO)sc2c1` (stereo not shown) [Example 99, 2-amino-2-(6-octylbenzo[d]thiazol-2-yl)propan-1-ol], with over 5 mg/kg; and `NC(CO)(CO)C1CCc2cc(Sc3cccc(OCc4ccccc4)c3)ccc2C1` (stereo not shown) [Example 113, 2-Amino-2-(6-(3-(benzyloxy)phenylthio)-1,2,3,4-tetrahydronaphthalen-2-yl)propane-1,3-diol], with under 0.5 mg/kg; and `CC(C)(C)[C@H]1CC[C@H](Oc2ccc3cc([C@](C)(N)CO)ccc3n2)CC1` (single isomer, unassigned) [Example 79A], with over 5 mg/kg. As to `CCCCCCCOc1ccc2cc(C(C)(N)CO)cnc2c1` (stereo not shown) [Example 91, 2-amino-2-(7-(heptyloxy)quinolin-3-yl)propan-1-ol], the ED50 was 0.5 to 5 mg/kg. As to `CCCCCCCOc1ccc2nc(C(C)(N)CO)ccc2c1` (stereo not shown) [Example 38, 2-amino-2-(6-(heptyloxy)quinolin-2-yl)propan-1-ol], the ED50 lay in the range of 0.5 to 5 mg/kg. On to `CCCCCCCOc1ccc2cc(C(C)(N)CO)ccc2n1` (stereo not shown) [Example 103, 2-amino-2-(2-(heptyloxy)quinolin-6-yl)propan-1-ol], for which the ED50 is 0.5 to 5 mg/kg.

Still in this test, the particulars now being: Mus musculus, Lymphocyte, po, read-out: Lymphopenia (ED50 mg/kg).
As for `CC(N)(CO)c1ccc2c(C(F)(F)F)c(O[C@H]3CC[C@H](C(C)(C)C)CC3)ccc2n1` (relative stereo) [Example 21, 2-Amino-2-[6-(trans-4-tert-butyl-cyclohexyloxy)-5-trifluoromethyl-quinolin-2-yl]-propan-1-ol], the ED50 is under 0.5 mg/kg.

The test is the same for the next values; noted with them: mice, oral gavage 0.5 and 5 mg/kg in 30% HPCD, blood 5 and 24 hours after administration.
For `CC(N)(CO)c1ccc2cc(O[C@H]3CC[C@H](C(C)(C)C)CC3)ccc2n1` (relative stereo) [Example 24, 2-Amino-2-[6-(trans-4-tert-butyl-cyclohexyloxy)-quinolin-2-yl]-propan-1-ol], the “Lymphopenia (ED50 mg/kg)” value was over 5 mg/kg. Regarding `CC(N)(CO)c1ccc2c(C(F)(F)F)c(O[C@H]3CC[C@H](C(C)(C)C)CC3)ccc2n1` (relative stereo) [Example 26, 2-Amino-2-[6-(trans-4-tert-butyl-cyclohexyloxy)-5-trifluoromethyl-quinolin-2-yl]-propan-1-ol], the “Lymphopenia (ED50 mg/kg)” value is under 0.5 mg/kg. Turning to `CC(N)(CO)c1ccc2cc(O[C@H]3CC[C@H](C(C)(C)C)CC3)ccc2n1` (relative stereo) [Example 18, 2-Amino-2-[6-(trans-4-tert-butyl-cyclohexyloxy)-quinolin-2-yl]-propan-1-ol], the “Lymphopenia (ED50 mg/kg)” value was 0.5 to 5 mg/kg.

As to `CC(N)(CO)c1ccc2c(C(F)(F)F)c(O[C@H]3CC[C@H](C(C)(C)C)CC3)ccc2n1` (relative stereo) [Example 27, 2-Amino-2-[6-(trans-4-tert-butyl-cyclohexyloxy)-5-trifluoromethyl-quinolin-2-yl]-propan-1-ol], the “Lymphopenia (ED50 mg/kg)” value is listed as over 5 mg/kg.

In the case of `CC(N)(CO)c1ccc2cc(O[C@H]3CC[C@H](C(C)(C)C)CC3)ccc2n1` (relative stereo) [Example 23, 2-Amino-2-[6-(trans-4-tert-butyl-cyclohexyloxy)-quinolin-2-yl]-propan-1-ol], the “Lymphopenia (ED50 mg/kg)” value is recorded as under 0.5 mg/kg.
